# Experimental data: PMC9666555, “Genuine selective caspase-2 inhibition with new irreversible small peptidomimetics” (Cell Death & Disease, 2022)
# “And” between values parts separate entries of the source, which are not always exact repeats. Equal values may be shown once. Read-outs that look alike come from different tables or passages of the source. Residues, ends and D or L forms follow the SMILES beside them. *: point of attachment. X1 = O=C(O)CC(N*)C(=O)COc1c(F)cccc1F; Quinaldoyl = O=C(c1ccc2ccccc2n1)*; Cbz = O=C(OCc1ccccc1)*; CH2F = FC*
# Tests used:
# [1] = system: Swiss mice hippocampal neurons; experiment: Aβ oligomer-induced dendritic spine loss in hippocampal primary cultures; type: cell-based, mouse; conditions: 100 nM, 6 h of exposure
# Method: For the monoculture model (MBBT4 devices), 20 × 10^3 hippocampal neurons were seeded in each chamber. For the compartmentalized coculture model (neuronal diode in MBBT5 devices), 40 × 10^3 cortical cells and 15 × 10^3 hippocampal cells were seeded in each input chamber and output chamber, respectively. The culture medium was renewed every 5 days. Microfluidic chips were placed in Petri dishes containing 0.1% EDTA (Sigma) and incubated at 37 °C in a 5% CO2 atmosphere. In the neuronal diodes, cortical axons entered the microchannels and reached the hippocampi chamber in around 4–5 days. In both the monoculture and coculture systems, cells were cultured for 3 weeks to allow high dendrites and synapse density and intense electrical firing.
# Cells were treated with caspase inhibitors and/or Aβ1–42 at 20 days in vitro. For the hippocampal monocultures, the culture medium was removed and replaced by fresh medium optionally containing 10 nM Aβ1–42 oligomers or monomers, with or without caspase inhibitors. After 6 h, cells were fixed, permeabilized, and subjected to immunolabelling. For cortico-hippocampal compartmentalized cocultures, the medium of the input chamber (cortical) was replaced by fresh medium optionally containing 100 nM Aβ1–42 oligomers or monomers, whereas the medium of the output (hippocampal) chamber was replaced by fresh medium optionally containing, or not, caspases inhibitors. […]
# Immunostaining was performed directly in microfluidic chambers as described [38]. […] Images were analyzed using ImageJ software (NIH, Bethesda, MD, USA).
# Synaptic disconnection was assessed as described [39] with slight modifications. Briefly, in hippocampal monocultures, synaptic disconnection was assessed through fluorescence microscopy by counting phalloidin clusters affixed to MAP2 and Bassoon. In cortico-hippocampal compartmentalized cocultures, synaptic disconnection was assessed by counting α-Synuclein presynaptic clusters affixed to MAP2-positive hippocampal dendrites. […] The images were similarly processed with ImageJ software before being used for quantification: the brightness/contrast of all control images were optimized manually to eliminate the background and to maximize the signal. The means of the minimum and maximum intensities were then calculated in the control condition and these settings were applied to all images. The brightness/contrast of all images was optimized manually to eliminate the background and maximize the intensity of the signal. α-synuclein/ MAP2 and Phalloidin/MAP2/Bassoon merges were then used for quantification. The number of spines was determined by counting individual clusters along ten dendritic regions (100 µm length each) in three independent experiments for every epitope. Only synapses detected on or near the neurites were included for analysis.
# recombinant human Casp2 = molecular target: T1, recombinant human Casp2 (Homo sapiens, UniProt P42575); experiment: Enzyme mechanistic studies (Ki, k3, k3/KI), Caspase-2; type: biochemical; conditions: for Ki ratio (Casp3/Casp2): reversible inhibitors
# T1 sequence (P42575 170-325 limits assumed): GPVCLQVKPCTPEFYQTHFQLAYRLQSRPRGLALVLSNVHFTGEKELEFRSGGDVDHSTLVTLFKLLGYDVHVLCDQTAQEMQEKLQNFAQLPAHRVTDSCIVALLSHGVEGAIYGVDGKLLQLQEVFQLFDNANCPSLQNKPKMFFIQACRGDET
# T1 sequence (P42575 348-452 limits assumed): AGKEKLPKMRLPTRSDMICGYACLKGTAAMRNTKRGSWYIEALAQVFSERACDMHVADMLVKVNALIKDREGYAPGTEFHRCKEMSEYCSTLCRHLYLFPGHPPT
# Method: (§1) For reversible inhibitors, the mechanisms of inhibition were determined by varying substrate and inhibitor concentrations and using Lineweaver−Burk representations to determine the inhibition constants Ki of competitive inhibitors (Ki = [E][I]/[EI]). For suicide inhibitors, inactivation can be represented by the minimum kinetic scheme (Eq. 2), where E and I are the free forms of enzyme and inhibitor, E * I a kinetic chimera of the Michaelis complex and E − I the covalent complex (inactivated enzyme).2 E+I⇄KIE*I→k3E−I
# (§2) KI and k3 are the kinetic constants characterizing the inactivation process and the k3/KI ratio is an index of the inhibitory potency. The first-order rate constant, k3, and the apparent dissociation constant, KI, were determined for Caspase-2 and -3 using the progress curve method. Briefly, the enzyme activities were measured continuously for 120 min. To determine the kinetic parameters, progress curves were obtained at several inhibition concentrations using fixed substrate concentration. The product released for each inhibitor concentration was plotted versus the time following Eq. 3 where the constant π depended on [I]’, a modified inhibitor concentration due to substrate competition, according to Eq. 4. [I]’ is defined by Eq. 5, where KM was Michaelis constant for the enzymatic hydrolysis of the appropriate fluorogenic substrate. The ratio k3/KI was obtained by fitting the experimental data to the equations (F.U., fluorescence unit):3 F.U.=∫0tvidt+F.U0−vo×e^−π×t/π+F.U.0 4 π=k3×[I]^′/KI+[I]^′ 5 [I]^′=[I]/1+S/KM
# Linear and nonlinear regression fits of the experimental data to the equations were performed with KaleidaGraph software. The experimental conditions were [Caspase-2]0 = 0.2 nM, [Ac-VDVAD-AMC]0 = 25 µM and [Caspase-3]0 = 0.1 nM, [Ac-DEVD-AMC]0 = 10 µM; [I]0 = 0–100 µM.
# recombinant human Casp3 = molecular target: T2, recombinant human Casp3 (Homo sapiens, UniProt P42574); experiment: Enzyme mechanistic studies (Ki, k3, k3/KI), Caspase-3; type: biochemical
# T2 sequence (P42574 29-175 limits assumed): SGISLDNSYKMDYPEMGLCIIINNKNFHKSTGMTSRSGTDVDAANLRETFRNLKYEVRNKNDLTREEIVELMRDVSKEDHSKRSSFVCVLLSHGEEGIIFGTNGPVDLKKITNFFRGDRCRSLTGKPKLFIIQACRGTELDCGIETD
# T2 sequence (P42574 176-277 limits assumed): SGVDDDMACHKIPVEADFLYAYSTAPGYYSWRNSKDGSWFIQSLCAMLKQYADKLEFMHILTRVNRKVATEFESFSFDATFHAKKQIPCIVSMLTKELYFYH
# Method: as §1, §2
# Linear and nonlinear regression fits of the experimental data to the equations were performed with KaleidaGraph software.
# [2] = molecular target: T3, human active recombinant caspase-2 (Homo sapiens, UniProt P42575); experiment: In vitro caspase activity and inhibition assay (IC50), Caspase-2; type: biochemical
# T3 sequence (P42575 170-325 limits assumed): T1 sequence (P42575 170-325 limits assumed)
# T3 sequence (P42575 348-452 limits assumed): T1 sequence (P42575 348-452 limits assumed)
# Method: Stock solutions were stored at −80 °C.
# [3] = molecular target: T4, human active recombinant Caspase-3 (Homo sapiens, UniProt P42574); experiment: In vitro caspase activity and inhibition assay (IC50), Caspase-3; type: biochemical
# T4 sequence (P42574 29-175 limits assumed): T2 sequence (P42574 29-175 limits assumed)
# T4 sequence (P42574 176-277 limits assumed): T2 sequence (P42574 176-277 limits assumed)
# Method: The human active recombinant Caspase-3 (#707-C3) was purchased from R&D Systems (Minneapolis, USA). […] Stock solutions were stored at −80 °C. […] Caspase inhibitors were solubilized in DMSO at 10 mM and stored at −80 °C.
# Initial velocity (V0) was determined from the linear portion of the progress curve. The composition of the activity buffer was: 20 mM HEPES, pH 7.4; 0.1% CHAPS, 5 mM DTT, 2 mM EDTA; 800 mM sodium succinate for Caspase-2 (0.2 nM) with 25 µM of Ac-VDVAD-7-amino-3-methylcoumarin (AMC) and 20 mM HEPES, pH 7.4; 0.1% CHAPS, 5 mM DTT, 2 mM EDTA; supplemented with 1 mg/mL of stabilizing agent bovine serum albumin (BSA) for Caspase-3 (0.1 nM) with 10 μM of Ac-DEVD-AMC. Compounds (0.001–100 µM) were tested in duplicate for each inhibitor concentration to detect their inhibitory potential. Enzymes and compounds were incubated for 30 min before initiating enzymatic reaction by adding substrate. Initial rates determined in control experiments (V0) were considered as 100% of the caspase activity; initial rates that were below 100% in the presence of tested compound (Vi) were considered as inhibition. The inhibitory activity of compounds was expressed as IC50 (Inhibitor concentration giving 50% inhibition). The values of IC50 were calculated by fitting the experimental data using Mars data Analysis 2.0 and KaleidaGraph software.1 %Inhibition=1001−Vi/V0=100I0/IC50+I0
# HeLa cells = experiment: Vincristine-induced HeLa cell death (propidium iodide, flow cytometry); type: cell-based, human; conditions: 1 h pretreatment, 20 nM vincristine 44 h; for effect against vincristine-induced cell death: indicated doses; for inhibition of vincristine-induced cell death: inhibitor 30 µM
# Method: HeLa cells (obtained from ATCC) were cultured in Dulbecco’s Modified Eagle Medium (DMEM, High Glucose, GlutaMAX™, Pyruvate) supplemented with antibiotics and 10% fetal calf serum (FCS) (Gibco, Life Technologies) and maintained in T75 Flasks at 1 × 10^6 cells per flask. Twenty-four hours before treatments, HeLa cells were transferred to 6-well plates (8 × 10^4 cells/well). The lymphoblastoid cell line Molt4cl8 was a gift from Dr. Bernard Krust (Inserm, University Paris 5) and was cultured in RPMI 1640 Glutamax medium supplemented with Hepes, antibiotics, and 10% FCS. HEK293 cells were obtained from ATCC (CRL-1573) and cultured in DMEM with Glutamax and 25 mM glucose (Life Technologies) supplemented with 10% FCS and antibiotics. For cell death induction, the following agents were added to cell cultures: Vincristine (Sigma) and Panobistat (LBH589; Selleck). Cell death was analyzed using fluorescence microscopy (Axio-observer Z1, Zeiss; equipped with CCD camera CoolsnapHQ2, Ropert Scientific) and cytofluorometry (MACSQuant® VYB; Miltenyi Biotec, Bergisch Gladbach, Germany) after labeling with propidium iodide (1 µg/mL; 10 min; 37 °C; Life Technologies) and Hoechst 33342 (1 µg/mL; 5 min; RT; Sigma).
# Fig. 2 q33 and h33 are protective against the cytocidal effect of Vincristine. a Vincristine induces HeLa cell death. Cells were incubated for 44 h at 37 °C with 20 nM Vincristine (VCR), then incubated with propidium iodide at 2 μg/mL for 10 min and analyzed by flow cytometry to quantify plasma membrane permeabilization. Histograms show fluorescence intensity detected by flow cytometry (one representative experiment) in the presence (VCR) or Absence (Co.) of Vincristine. % of propidium iodide-positive cells are indicated for both conditions. b Dose–response of Vincristine-induced cell death. HeLa cells were incubated and treated as in (a) with the indicated doses of Vincristine (VCR) and analyzed by flow cytometry. […] Representative fluorescence microscopy micrographs of cells treated for 44 h with 20 nM vincristine (VCR) or not (Co.) and stained with Hoechst 33342. Vincristine induces progressive nuclear changes with first condensed nuclei (arrows) and then apoptotic bodies (dashed arrow). d Broad-spectrum irreversible caspase inhibitors prevent vincristine-induced cell death. HeLa cells were pretreated for 1 hr with the indicated broad-spectrum irreversible caspases inhibitors (z-VAD(OMe)-fmk at 30 μM, Q-VD-OPh 30 μM, Emricasan 10 μM, or the negative control Q-VE-OPh 30 μM), then treated with vincristine as in panel (a), and analyzed by flow cytometry. Histograms show the mean ± SD of 3 independent experiments (***p value < 0.001). e Effect of the reversible Caspase-2 inhibitors q33 and h33 against vincristine-induced cell death. HeLa cells were pretreated for 1 h with the indicated doses of q33 or h33, then treated with vincristine as in panel a, and analyzed by flow cytometry. Histograms show the mean ± SD of three independent experiments (*p value < 0.1). TEXT PRINTED IN THE PICTURE: (a) VCR: 39,5 % DOUBTS OF THE COPYIST ABOUT THIS PICTURE: Panel a: the picture prints no measure beside "39,5 %" and "4.1%". I assigned 39,5 % to VCR only because it stands by the grey VCR peak. / Panel a: "4.1%" seems to belong to the untreated control (Co.). That is not a substance, so it is left out.
# Fig. 5 LJ2 inhibits cell death induced by microtubule destabilization and hydroxamic acid-based deacetylase (HDAC) inhibition. a Effect of the irreversible Caspase-2 inhibitors LJ2 against vincristine-induced cell death. HeLa cells were pretreated for 1 h with the indicated doses of LJ2, Q-VD-OPh, or Q-LETD-OPh, then treated with vincristine (VCR) as in Fig. 2, then incubated with propidium iodide at 2 μg/mL for 10 min and analyzed by flow cytometry. Histogram data are mean ± SD (n = 3, *p value < 0.01). b Effect of Caspases-inhibitors against Panobistat (LBH589)-induced cell death. […]
# [4] = system: Casp2-S1P-SREBP2 activation pathway in HEK 293 cells; experiment: Casp2-dependent S1P cleavage and SREBP2 activation in transfected HEK 293 cells (WB); conditions: 10 µM, 16 h
# Method: To test SREBP processing, HEK 293 (ATCC® CRL-1573) cells were plated at a density of 0.5 × 10^5 per well (6-well plates). The next day, 1 μg of each cDNAs were transfected using lipofectamine 3000 (Thermo Fisher Scientific, MA) according to the manufacturer’s instruction. cDNAs used were empty vector (EV), Casp2-HA, PIDD-Flag, RAIDD-His, Myc-S1P, and V5-SREBP2. After 4 h, cells were incubated in DMEM/F12 medium supplemented with indicated Casp2 inhibitors (10 μM) for 16 h. Whole-cell lysates were prepared in lysate buffer (150 mM Tris-HCl, pH 7.4, 10% sodium-deoxycholate, 100 mM NaCl, 100 mM EDTA, 100 mM PMSF, 200 mM NaF, 100 mM Na3VO4, and a mixture of protease inhibitors). […] Equal quantities of proteins were subjected to immunoblot (WB) analysis with anti-Flag (#F7425 Sigma-Aldrich), anti-HA (#1867431, Roche), anti-Casp2 (#ALX-804-356, 11B4, Enzo Life Sciences), anti-V5 monoclonal antibody (#13202, Cell Signaling Technology), anti-Casp3 (#9661, #9662, #9664, Cell Signaling Technologies), and anti-HSP90 (#sc-101494, Santa Cruz Technologies).
# HEK 293 cells were transfected with indicated plasmids in order to overexpress SREBP2, S1P, RAIDD, PIDD1, and Casp-2. […] HEK 293 cells were transfected with the indicated plasmids. […] Then, whole cell extracts (WCL) were prepared and subjected to WB analysis to detect Casp2 (through HA tag), RAIDD (through 6HIS tag), and PIDD1, PIDD1-C, PIDD1-CC (through Flag tag).
# [5] = reversible competitive inhibitors, Lineweaver-Burk, read-out: Enzyme assays Casp2 Ki
# [6] = reversible competitive inhibitors, Lineweaver-Burk, read-out: Enzyme assays Casp3 Ki (converted)
# [7] = 30 min preincubation, 0.2 nM Caspase-2, 25 µM Ac-VDVAD-AMC, read-out: Enzyme assays Casp2 IC50
# [8] = 30 min preincubation, 0.1 nM Caspase-3, 10 µM Ac-DEVD-AMC, read-out: Enzyme assays Casp3 IC50 (converted)
# [9] = irreversible inhibitors, progress curve method
compound,measurement,setting,value
Aβ1–42 oligomers: oligomers of human β-amyloid1-42 peptide [reference compound],decrease in spine density,[1],50%
"CC(=O)N[C@H](C(=O)N[C@@H](CC(=O)O)C(=O)N[C@H](C(=O)N1CC[C@H](CC(C)(C)C)[C@@H]1C(=O)N[C@H]1CC(=O)OC1O)C(C)C)C(C)C (stereo partly shown) [h33, reference compound]",Ki,recombinant human Casp2; [5],10.9 nM
same,Ki ratio (Casp3/Casp2),recombinant human Casp2,597
same,Ki,recombinant human Casp3; [6],6510 nM
same,IC50,[2]; [7],11 nM
same,IC50,[3]; [8],4570 nM
same,effect against vincristine-induced cell death,HeLa cells,showed cytoprotective effect
"CC(=O)NC(C(=O)NC(CC(=O)O)C(=O)NC(C(=O)N1CCC(c2ccccc2)C1C(=O)NC1CC(=O)OC1O)C(C)C)C(C)C (stereo not shown) [k33, reference compound]",Ki,recombinant human Casp2; [5],90.5 nM
same,Ki,recombinant human Casp3; [6],2770 nM
same,IC50,[2],178 nM
same,IC50,[3],1960 nM
"CC(C)[C@H](NC(=O)c1ccc2ccccc2n1)C(=O)N[C@@H](CC(=O)O)C(=O)N[C@H](C(=O)N[C@@H](C)C(=O)NC(CC(=O)O)C(=O)COc1c(F)cccc1F)C(C)C (stereo partly shown) [Δ2Me-TRP601, Quinolin-2-carbonyl-VDVAD-CH2-O(2,6F2)Ph, reference compound] (Quinaldoyl-VDVA-X1)",Casp2 k3,recombinant human Casp2; [9],"8,08 ms^−1"
same,Casp2 k3/KI,recombinant human Casp2; [9],"~ 1,586,020 M^−1 s^−1 and 1 586 020 M^−1 s^−1"
same,KI (inactivation),recombinant human Casp2; [9],5.49 nM
same,S1P cleavage,[4],abolished
same,SREBP2 activation,[4],abolished
same,"impact on RAIDD, PIDD1, and Casp2 expression",[4],no significant impact
same,Casp3 k3,recombinant human Casp3; [9],"1,85 ms^−1"
same,Casp3 k3/KI,recombinant human Casp3; [9],1 613 405 M^−1 s^−1
same,KI (inactivation),recombinant human Casp3; [9],1.17 nM
same,IC50,[3],0.31 ± 0.01 nM
COC(=O)C[C@H](NC(=O)[C@H](C)NC(=O)[C@@H](NC(=O)OCc1ccccc1)C(C)C)C(=O)CF [z-VAD(Ome)-fmk] (Cbz-Val-Ala-Asp(OMe)-CH2F),inhibition of vincristine-induced cell death,HeLa cells,more than 80%
Q-LETD-OPh,effect against vincristine-induced cell death,HeLa cells,no effect
"CC(=O)N[C@H](C(=O)N[C@@H](CC(=O)O)C(=O)N[C@H](C(=O)N1CCc2ccc(C)cc2[C@@H]1C(=O)N[C@H]1CC(=O)OC1O)C(C)C)C(C)C (stereo partly shown) [q33, reference compound]",Ki,recombinant human Casp2; [5],24 nM
same,Ki ratio (Casp3/Casp2),recombinant human Casp2,94.5
same,Ki,recombinant human Casp3; [6],2370 nM
same,IC50,[2]; [7],15 nM
same,IC50,[3]; [8],2540 nM
same,effect against vincristine-induced cell death,HeLa cells,showed cytoprotective effect
"CC(=O)N[C@H](C(=O)N[C@@H](CC(=O)O)C(=O)N[C@H](C(=O)N1CC[C@@H](OC(C)C)[C@@H]1C(=O)N[C@H]1CC(=O)OC1O)C(C)C)C(C)C (stereo partly shown) [c33, reference compound]",Ki,recombinant human Casp2; [5],122 nM
same,Ki,recombinant human Casp3; [6],2440 nM
same,IC50,[2],271 nM
same,IC50,[3],6720 nM
CC(C)C(NC(=O)c1ccc2ccccc2n1)C(=O)NC(CCC(=O)O)C(=O)COc1c(F)cccc1F (stereo not shown) [Q-VE-OPh],inhibition of vincristine-induced cell death,HeLa cells,not
CC(C)[C@H](NC(=O)c1ccc2ccccc2n1)C(=O)N[C@@H](CC(=O)O)C(=O)N[C@H](C(=O)N1CC[C@H](CC(C)(C)C)[C@H]1C(=O)NC(CC(=O)O)C(=O)COc1c(F)cccc1F)C(C)C (stereo partly shown) [LJ3b],"k3/Ki ratio against Casp2, times lower than the one of the a isomer (LJ2a or LJ3a)",recombinant human Casp2,more than 2000 times
same,Casp2 k3/KI,recombinant human Casp2; [9],823 M⁻¹ s⁻¹
same,Ki,"recombinant human Casp2; irreversible inhibitors, progress curve method, read-out: Casp2 KI",8540 ± 300 nM
same,Casp3 k3,recombinant human Casp3; [9],0.8 ± 6 × 10^−5 ms^−1
same,Casp3 k3/KI,recombinant human Casp3; [9],9 M⁻¹ s⁻¹
same,Ki,"recombinant human Casp3; irreversible inhibitors, progress curve method, read-out: Casp3 KI",84200 nM
